From PubChem BioAssay (NCI)
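Step 1: Grow cells in 96-well plates. Step 2: Expose to compound for 48 hours at 5 concentrations. Step 3: Interpolate endpoints linearly; if unreached, use highest concentration. At the GI50, growth is halved. The concentration for full growth arrest is given as TGI.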

Key:
Assay in all cases: NCI anticancer screen, dose series, 48 h
[1] = test system: NCI-H226 lung
[2] = test system: COLO 205 colon
[3] = test system: U251 CNS
[4] = test system: RXF 393 renal
[5] = test system: KM12 colon
[6] = test system: 786-0 renal
[7] = test system: UACC-62 melanoma
[8] = test system: PC-3 prostate
[9] = test system: M14 melanoma
[10] = test system: TK-10 renal
[11] = test system: NCI-H522 lung
[12] = test system: SNB-19 CNS
[13] = test system: RPMI-8226 leukemia
[14] = test system: UO-31 renal
[15] = test system: MOLT-4 leukemia
[16] = test system: SF-268 CNS
[17] = test system: EKVX NSCLC
[18] = test system: HS 578T breast
[19] = test system: MCF7 breast
[20] = test system: MDA-MB-435
[21] = test system: K-562 leukemia
[22] = test system: UACC-257 melanoma
[23] = test system: LOX IMVI melanoma
[24] = test system: HOP-62 NSCLC
[25] = test system: SR leukemia
[26] = test system: SNB-75 CNS
[27] = test system: SF-539 CNS
[28] = test system: A549 NSCLC
[29] = test system: CAKI-1 renal
[30] = test system: OVCAR-5 ovarian
[31] = test system: IGROV1 ovarian
[32] = test system: SK-MEL-28 melanoma
[33] = test system: CCRF-CEM leukemia
[34] = test system: SK-MEL-5 melanoma
[35] = test system: ACHN renal
[36] = test system: HCT-116 colon
[37] = test system: HCT-15 colon
[38] = test system: SK-OV-3 ovarian
[39] = test system: HOP-92 NSCLC
[40] = test system: SK-MEL-2 melanoma
[41] = test system: SF-295 CNS
[42] = test system: MDA-MB-231 breast
[43] = test system: HT29 colon
[44] = test system: NCI-H23 lung
[45] = test system: SW-620 colon
[46] = test system: OVCAR-3 ovarian
[47] = test system: NCI-H460 lung
[48] = test system: OVCAR-4 ovarian
[49] = test system: BT-549 breast
[50] = test system: SN12C renal
[51] = test system: MALME-3M melanoma
[52] = test system: DU-145 prostate
[53] = test system: NCI/ADR-RES ovarian
[54] = test system: A498 renal
[55] = test system: HL-60(TB) leukemia
[56] = test system: T-47D breast
[57] = test system: OVCAR-8 ovarian
[58] = test system: HCC-2998 colon

## O=c1cccc(C#CC#CC2=CCCCC2)o1
[1]
  GI50: 6.87 µM
  TGI: 14.6 µM
[2]
  GI50: 4.58 µM
  TGI: 13.5 µM
[3]
  GI50: 4.13 µM
  TGI: 9.46 µM
[4]
  GI50: 2.69 µM
  TGI: 5.57 µM
[5]
  GI50: 5.84 µM
  TGI: 13.6 µM
[6]
  GI50: 1.59 µM
  TGI: 4.35 µM
[7]
  GI50: 2.87 µM
  TGI: 8.56 µM
[8]
  GI50: 6.6 µM
  TGI: 11.6 µM
[9]
  GI50: 2.13 µM
  TGI: 6.34 µM
[10]
  GI50: 8.69 µM
  TGI: 14.2 µM
[11]
  GI50: 4.03 µM
  TGI: 10.9 µM
[12]
  GI50: 12 µM
  TGI: 32.6 µM
[13]
  GI50: 2.19 µM
  TGI: 5.83 µM
[14]
  GI50: 3.99 µM
  TGI: 11 µM
[15]
  GI50: 0.309 µM
  TGI: > 33 µM
[16]
  GI50: 9.15 µM
  TGI: 20.6 µM
[17]
  GI50: 10.2 µM
  TGI: 25.8 µM
[18]
  GI50: 5.24 µM
  TGI: 24.3 µM
[19]
  GI50: 5.04 µM
  TGI: 13.4 µM
[20]
  GI50: 4 µM
  TGI: 10.4 µM
[21]
  GI50: 3.26 µM
  TGI: > 41.8 µM
[22]
  GI50: 7.49 µM
  TGI: 12.9 µM
[23]
  GI50: 3.09 µM
[24]
  GI50: 8.65 µM
  TGI: 16.3 µM
[25]
  GI50: 0.0307 µM
  TGI: 23.4 µM
[26]
  GI50: 7.1 µM
  TGI: 36.8 µM
[27]
  GI50: 0.235 µM
  TGI: 3.04 µM
[28]
  GI50: 10.1 µM
  TGI: > 47.7 µM
[29]
  GI50: 6.48 µM
  TGI: 10.3 µM
[30]
  GI50: 6.21 µM
  TGI: 10.2 µM
[31]
  GI50: 5.4 µM
  TGI: 18.1 µM
[32]
  GI50: > 29.9 µM
  TGI: > 52.6 µM
[33]
  GI50: 0.649 µM
  TGI: 5.5 µM
[34]
  GI50: 3.3 µM
  TGI: 8.89 µM
[35]
  GI50: 4.49 µM
  TGI: 10 µM
[36]
  GI50: 1.16 µM
  TGI: 3.67 µM
[37]
  GI50: 2.76 µM
  TGI: 10.9 µM
[38]
  GI50: 10.5 µM
  TGI: 27.9 µM
[39]
  TGI: > 23 µM
[40]
  GI50: 10.3 µM
  TGI: > 49 µM
[41]
  GI50: 9.04 µM
  TGI: 16.4 µM
[42]
  GI50: 1.96 µM
  TGI: 5.3 µM
[43]
  GI50: 14 µM
  TGI: > 100 µM
[44]
  GI50: 1.14 µM
  TGI: 2.87 µM
[45]
  GI50: 3.4 µM
  TGI: 18.2 µM
[46]
  GI50: 6.66 µM
  TGI: 10.4 µM
[47]
  GI50: 10.6 µM
  TGI: 21.8 µM
[48]
  GI50: 28 µM
  TGI: > 49.3 µM
[49]
  GI50: 2.57 µM
[50]
  GI50: 0.516 µM
  TGI: 1.48 µM
[51]
  GI50: 7.34 µM
  TGI: 13.8 µM
[52]
  GI50: 1.96 µM
  TGI: 4.4 µM
[53]
  GI50: 6.99 µM
  TGI: 20.4 µM
[54]
  GI50: 19.8 µM
  TGI: 36.8 µM
[55]
  GI50: 4.77 µM
  TGI: 18.3 µM
[56]
  GI50: 2.73 µM
  TGI: 14.8 µM
[57]
  GI50: 2.21 µM
  TGI: 6.32 µM

## Cn1c(=O)c(Cc2ccccc2F)cc2cnc(NC3CCOCC3)nc21
[1]
  GI50: > 25 µM
  TGI: > 25 µM
[2]
  GI50: > 25 µM
  TGI: > 25 µM
[3]
  GI50: > 25 µM
  TGI: > 25 µM
[4]
  GI50: > 18.4 µM
  TGI: > 25 µM
[5]
  GI50: > 25 µM
  TGI: > 25 µM
[6]
  GI50: > 25 µM
  TGI: > 25 µM
[7]
  GI50: > 25 µM
  TGI: > 25 µM
[8]
  GI50: > 25 µM
  TGI: > 25 µM
[9]
  GI50: > 25 µM
  TGI: > 25 µM
[10]
  GI50: > 25 µM
  TGI: > 25 µM
[11]
  GI50: > 25 µM
  TGI: > 25 µM
[12]
  GI50: > 25 µM
  TGI: > 25 µM
[13]
  GI50: > 25 µM
  TGI: > 25 µM
[14]
  GI50: > 20.4 µM
  TGI: > 25 µM
[15]
  GI50: > 25 µM
  TGI: > 25 µM
[16]
  GI50: > 25 µM
  TGI: > 25 µM
[18]
  GI50: > 25 µM
  TGI: > 25 µM
[19]
  GI50: > 25 µM
  TGI: > 25 µM
[20]
  GI50: > 25 µM
  TGI: > 25 µM
[21]
  GI50: > 25 µM
  TGI: > 25 µM
[22]
  GI50: > 25 µM
  TGI: > 25 µM
[23]
  GI50: > 25 µM
  TGI: > 25 µM
[24]
  GI50: > 25 µM
  TGI: > 25 µM
[25]
  GI50: > 25 µM
  TGI: > 25 µM
[58]
  GI50: > 25 µM
  TGI: > 25 µM
[26]
  GI50: > 8.48 µM
  TGI: > 25 µM
[27]
  GI50: > 25 µM
  TGI: > 25 µM
[28]
  GI50: > 25 µM
  TGI: > 25 µM
[29]
  GI50: > 25 µM
  TGI: > 25 µM
[30]
  GI50: > 25 µM
  TGI: > 25 µM
[31]
  GI50: > 25 µM
  TGI: > 25 µM
[32]
  GI50: > 25 µM
  TGI: > 25 µM
[33]
  GI50: > 25 µM
  TGI: > 25 µM
[34]
  GI50: > 25 µM
  TGI: > 25 µM
[35]
  GI50: > 25 µM
  TGI: > 25 µM
[36]
  GI50: > 25 µM
  TGI: > 25 µM
[37]
  GI50: > 25 µM
  TGI: > 25 µM
[38]
  GI50: > 25 µM
  TGI: > 25 µM
[39]
  GI50: 4.91 µM
  TGI: > 25 µM
[40]
  GI50: > 25 µM
  TGI: > 25 µM
[41]
  GI50: > 25 µM
  TGI: > 25 µM
[42]
  GI50: > 25 µM
  TGI: > 25 µM
[43]
  GI50: > 25 µM
  TGI: > 25 µM
[44]
  GI50: > 25 µM
  TGI: > 25 µM
[45]
  GI50: > 25 µM
  TGI: > 25 µM
[46]
  GI50: > 25 µM
  TGI: > 25 µM
[47]
  GI50: > 25 µM
  TGI: > 25 µM
[48]
  GI50: > 25 µM
  TGI: > 25 µM
[49]
  GI50: > 25 µM
  TGI: > 25 µM
[50]
  GI50: > 25 µM
  TGI: > 25 µM
[51]
  GI50: > 25 µM
  TGI: > 25 µM
[52]
  GI50: > 25 µM
  TGI: > 25 µM
[53]
  GI50: > 25 µM
  TGI: > 25 µM
[54]
  GI50: > 25 µM
  TGI: > 25 µM
[55]
  GI50: > 25 µM
  TGI: > 25 µM
[56]
  GI50: > 25 µM
  TGI: > 25 µM
[57]
  GI50: > 25 µM
  TGI: > 25 µM
